PubChem BioAssay AID1919016 (Molecular Pharmacology Branch, DTP, NCI, 2023)
One block for each compound: values may come before it.

Tested on: NCI-H196 complex spheroid growth, percent test/control
Assay: Anticancer human tumor NCI-H196 cell line growth inhibition [AhR];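 note: seven days of drug exposure starting three days after plating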;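 for viability, T/C: 100% = DMSO vehicle control wells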
Settings: for IC50: curve of first compound; for viability, T/C: stronger effect = lower value
How it was run: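 Spheroids combined tumor cells with HUVEC endothelial cells and human MSCs as stroma. AhR antagonists were paired with standard or investigational drugs, each dosed in half-log steps down from near clinical Cmax, or from 10 microM where Cmax was unknown.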

IC50 (second compound 0.1 µM): > 10 µM
IC50 (second compound 0.316 µM): > 10 µM
IC50 (second compound 1 µM): > 10 µM
IC50 (second compound 3.16 µM): > 10 µM
IC50 (second compound 10 µM): > 10 µM
SMILES: CC1(C)CCC(CN2CCN(c3ccc(C(=O)NS(=O)(=O)c4ccc(NCC5CCOCC5)c([N+](=O)[O-])c4)c(Oc4cnc5[nH]ccc5c4)c3)CC2)=C(c2ccc(Cl)cc2)C1 + Cc1cncc(-c2nc(NCCc3c[nH]c4ccccc34)c3ncn(C(C)C)c3n2)c1
viability, T/C (second compound 0.1 µM, first compound 0.0316 µM): 98.3%
viability, T/C (second compound 0.1 µM, first compound 0.1 µM): 97.8%
viability, T/C (second compound 0.1 µM, first compound 0.316 µM): 89.4%
viability, T/C (second compound 0.1 µM, first compound 1 µM): 98.6%
viability, T/C (second compound 0.1 µM, first compound 3.16 µM): 96.5%
viability, T/C (second compound 0.1 µM, first compound 10 µM): 107%
viability, T/C (second compound 0.316 µM, first compound 0.0316 µM): 106%
viability, T/C (second compound 0.316 µM, first compound 0.1 µM): 96%
viability, T/C (second compound 0.316 µM, first compound 0.316 µM): 95.7%
viability, T/C (second compound 0.316 µM, first compound 1 µM): 93.1%
viability, T/C (second compound 0.316 µM, first compound 3.16 µM): 105%
viability, T/C (second compound 0.316 µM, first compound 10 µM): 108%
viability, T/C (second compound 1 µM, first compound 0.0316 µM): 91.7%
viability, T/C (second compound 1 µM, first compound 0.1 µM): 101%
viability, T/C (second compound 1 µM, first compound 0.316 µM): 108%
viability, T/C (second compound 1 µM, first compound 1 µM): 97.1%
viability, T/C (second compound 1 µM, first compound 3.16 µM): 103%
viability, T/C (second compound 1 µM, first compound 10 µM): 105%
viability, T/C (second compound 3.16 µM, first compound 0.0316 µM): 115%
viability, T/C (second compound 3.16 µM, first compound 0.1 µM): 105%
viability, T/C (second compound 3.16 µM, first compound 0.316 µM): 105%
viability, T/C (second compound 3.16 µM, first compound 1 µM): 108%
viability, T/C (second compound 3.16 µM, first compound 3.16 µM): 95%
viability, T/C (second compound 3.16 µM, first compound 10 µM): 104%
viability, T/C (second compound 10 µM, first compound 0.0316 µM): 87.8%
viability, T/C (second compound 10 µM, first compound 0.1 µM): 97.9%
viability, T/C (second compound 10 µM, first compound 0.316 µM): 107%
viability, T/C (second compound 10 µM, first compound 1 µM): 118%
viability, T/C (second compound 10 µM, first compound 3.16 µM): 105%
viability, T/C (second compound 10 µM, first compound 10 µM): 101%

IC50 (second compound 0.1 µM): > 3 µM
IC50 (second compound 0.316 µM): > 3 µM
IC50 (second compound 1 µM): > 3 µM
IC50 (second compound 3.16 µM): > 3 µM
IC50 (second compound 10 µM): > 3 µM
SMILES: CCN(c1cc(-c2ccc(CN3CCOCC3)cc2)cc(C(=O)NCc2c(C)cc(C)[nH]c2=O)c1C)C1CCOCC1 + Cc1cncc(-c2nc(NCCc3c[nH]c4ccccc34)c3ncn(C(C)C)c3n2)c1
viability, T/C (second compound 0.1 µM, first compound 0.00949 µM): 103%
viability, T/C (second compound 0.1 µM, first compound 0.03 µM): 97.3%
viability, T/C (second compound 0.1 µM, first compound 0.0949 µM): 97.7%
viability, T/C (second compound 0.1 µM, first compound 0.3 µM): 96.9%
viability, T/C (second compound 0.1 µM, first compound 0.949 µM): 99.3%
viability, T/C (second compound 0.1 µM, first compound 3 µM): 97.3%
viability, T/C (second compound 0.316 µM, first compound 0.00949 µM): 106%
viability, T/C (second compound 0.316 µM, first compound 0.03 µM): 98.8%
viability, T/C (second compound 0.316 µM, first compound 0.0949 µM): 102%
viability, T/C (second compound 0.316 µM, first compound 0.3 µM): 92.4%
viability, T/C (second compound 0.316 µM, first compound 0.949 µM): 99%
viability, T/C (second compound 0.316 µM, first compound 3 µM): 98.8%
viability, T/C (second compound 1 µM, first compound 0.00949 µM): 103%
viability, T/C (second compound 1 µM, first compound 0.03 µM): 101%
viability, T/C (second compound 1 µM, first compound 0.0949 µM): 111%
viability, T/C (second compound 1 µM, first compound 0.3 µM): 97%
viability, T/C (second compound 1 µM, first compound 0.949 µM): 92.2%
viability, T/C (second compound 1 µM, first compound 3 µM): 93.3%
viability, T/C (second compound 3.16 µM, first compound 0.00949 µM): 109%
viability, T/C (second compound 3.16 µM, first compound 0.03 µM): 105%
viability, T/C (second compound 3.16 µM, first compound 0.0949 µM): 114%
viability, T/C (second compound 3.16 µM, first compound 0.3 µM): 106%
viability, T/C (second compound 3.16 µM, first compound 0.949 µM): 104%
viability, T/C (second compound 3.16 µM, first compound 3 µM): 121%
viability, T/C (second compound 10 µM, first compound 0.00949 µM): 86.9%
viability, T/C (second compound 10 µM, first compound 0.03 µM): 81.2%
viability, T/C (second compound 10 µM, first compound 0.0949 µM): 86.5%
viability, T/C (second compound 10 µM, first compound 0.3 µM): 81.1%
viability, T/C (second compound 10 µM, first compound 0.949 µM): 87.2%
viability, T/C (second compound 10 µM, first compound 3 µM): 90.1%
